Results on three molecules are retold here after patent publication US12128048B2, “Combination therapies using PRMT5 inhibitors for the treatment of cancer” (Mirati Therapeutics, Inc., priority 2021, dated 2024).

The subject of experiment [1] is LU99 PRMT5-041 lung tumor xenograft model. As to the kind of experiment: LU99 PRMT5-041 tumor xenograft, Example 3 (MRTX1719 with or without MRTX849). The class given is in vivo, mice. To be noted: MRTX1719 50 mg/kg PO QD, MRTX849 30 mg/kg PO QD.
Experimental: (§1) Immunodeficient female nu/nu mice were implanted with 5×10^6 LU99 lung cancer cells in 50% Matrigel. Tumors were measured using calipers until they reached approximately 150-200 mm^3. Animals were randomized to receive A) vehicle (0.5% methylcellulose (4000 cps)/0.2% Tween80 in water), B) a PRMT5 inhibitor, C) KRAS^G12C inhibitor, or D) the PRMT5 inhibitor and KRAS^G12C inhibitor, all administered orally (PO) for 21 days. Tumor volume was measured twice a week (n=5/treatment group). Average tumor volume and standard error of the mean was calculated and plotted at each study day in GraphPad.
For experiment [2], the system named is SW1573 PRMT5-044 lung tumor xenograft model. In words: SW1573 PRMT5-044 tumor xenograft, Example 4 (MRTX1719 with or without MRTX849). It counts as in vivo, mice. The following applies: MRTX1719 50 mg/kg PO QD, MRTX849 100 mg/kg PO QD.
Experimental: as §1
The subject of experiment [3] is KRAS^G12C and CDKN2A/MTAP^DEL lung tumor xenograft LU99 model. In words: LU99 lung tumor xenograft, Example 2 (MRTX7477 with or without MRTX849). To be noted: MRTX7477 200 mg/kg PO BID, MRTX849 30 mg/kg PO QD.
Experimental: as §1
For experiment [4] the test system is unchanged. As to the kind of experiment: LU99 lung tumor xenograft, Example 1 (MRTX9768 with or without MRTX849). The following applies: MRTX9768 100 mg/kg PO BID, MRTX849 30 mg/kg PO QD.
Experimental: as §1

As to `C=C(F)C(=O)N1CCN(c2nc(OC[C@@H]3CCCN3C)nc3c2CCN(c2cccc4cccc(Cl)c24)C3)C[C@@H]1CC#N` [MRTX849], the “Tumor Volume Mean” value is listed as 154 mm^3 in experiment [1] (Day 0); 142 mm^3 in experiment [1] (Day 5); 117 mm^3 in experiment [1] (Day 8); 87 mm^3 in experiment [1] (Day 12); 81 mm^3 in experiment [1] (Day 15); 84 mm^3 in experiment [1] (Day 20). Besides, the “Tumor Volume Mean” value is 103 mm^3 in experiment [1] (Day 22); 139 mm^3 in experiment [2] (Day 0); 150 mm^3 in experiment [2] (Day 3); 188 mm^3 in experiment [2] (Day 8); 236 mm^3 in experiment [2] (Day 10); 285 mm^3 in experiment [2] (Day 14). Also, the “Tumor Volume Mean” value was determined as 320 mm^3 in experiment [2] (Day 17) and 361 mm^3 in experiment [2] (Day 26).

Take `Cn1ncc(-c2ccc3c(=O)[nH]nc(CN)c3c2)c1-c1ccc2ccccc2c1C#N` [MRTX7477]: the “Tumor Volume” value in experiment [3] (Day 1) was 214.5 mm^3; in experiment [3] (Day 5), 210.7 mm^3; in experiment [3] (Day 8), 177.1 mm^3; in experiment [3] (Day 12), 185.3 mm^3; in experiment [3] (Day 15), 189.1 mm^3; in experiment [3] (Day 19) it was 229.5 mm^3. In addition, the entries for the “Tumor Volume” value in experiment [3] (Day 21) and in experiment [3] (Day −2) were 267.5 mm^3 and 129.4 mm^3, respectively.

Regarding `Cn1ncc(-c2ccc3c(=O)[nH]nc(CN)c3c2)c1-c1c(F)cc2ccccc2c1C#N` [MRTX9768], the “Tumor Volume Mean” value worked out at 183.59 mm^3 in experiment [4] (Day 0); 265.26 mm^3 in experiment [4] (Day 3); 331.80 mm^3 in experiment [4] (Day 7); 349.53 mm^3 in experiment [4] (Day 10); 406.58 mm^3 in experiment [4] (Day 14); 431.91 mm^3 in experiment [4] (Day 17). In addition, the “Tumor Volume Mean” value in experiment [4] (Day 21) was 458.95 mm^3.
